Assays:
hLBAT = molecular target: T1, hLBAT (Homo sapiens, UniProt Q14973); experiment: LBAT (h/m) assay: 3H-taurocholic acid uptake in human LBAT-overexpressing cells; type: cell-based; settings: 0.3 μM 3H-taurocholic acid + 7.5 μM cold taurocholic acid, 20 minutes at 37° C.
T1 construct: expressed in transfected cells; kept under Geneticin selection
T1 sequence (Q14973 1-349): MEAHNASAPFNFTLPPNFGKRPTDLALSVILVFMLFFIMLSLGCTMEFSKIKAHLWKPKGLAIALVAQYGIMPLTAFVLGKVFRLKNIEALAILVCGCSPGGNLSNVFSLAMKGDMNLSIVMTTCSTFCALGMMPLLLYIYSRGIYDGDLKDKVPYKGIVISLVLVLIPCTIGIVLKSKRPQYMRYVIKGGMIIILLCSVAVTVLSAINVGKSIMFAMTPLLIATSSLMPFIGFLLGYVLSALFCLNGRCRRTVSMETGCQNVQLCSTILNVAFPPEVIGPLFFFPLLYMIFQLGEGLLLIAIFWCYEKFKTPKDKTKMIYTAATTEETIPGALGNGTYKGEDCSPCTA
Method: LBAT (h/m) Assay Protocol
20,000 cells (Human or Mouse LBAT-overexpressing cells) were seeded in 96-wells plate (Corning CLS3809) in 100 μL MEM-alpha medium (Gibco 12571-063) supplemented with 10% FBS (Gibco 10438026) containing Geneticin (Gibco 10131-027) (1 mg/mL) and incubated at 37° C. in 5% CO2 for 24 hours. After incubation, media was decanted from the wells and cells were washed two times with 300 μL of basal MEM-alpha medium (FBS-free). After decanting basal MEM-alpha medium each time, plates were tapped against paper towel to ensure maximum removal of residual media. For human LBAT, incubation mix was prepared by adding test inhibitor dilutions (3-fold serial dilution in DMSO (Sigma D2650), 10 points) in MEM-alpha (without FBS) containing 0.3 μM 3H-taurocholic acid (ARC ART-1368) and 7.5 μM cold taurocholic acid (Sigma T4009) (maintaining 0.2% final DMSO concentration). For mouse LBAT, incubation mix was prepared by adding test inhibitor dilutions (3-fold serial dilution in DMSO, 10 points) in MEM-alpha (without FBS) containing 0.3 μM 3H-taurocholic acid and 25 μM cold taurocholic acid maintaining 0.2% final DMSO concentration). 50 μL of incubation mix containing test inhibitors was then added to the wells (in duplicate) and the plates were incubated for 20 minutes in a CO2 incubator at 37° C. After incubation, the reaction was stopped by keeping the plates on ice water mix for 2-3 minutes and then the incubation mix was aspirated completely from the wells. The wells were washed two times with 250 μL of chilled unlabelled 1 mM taurocholic acid dissolved in HEPES (Gibco 15630080)-buffered (10 mM) HBSS (Gibco 14175079) (pH 7.4). The plates were tapped against a paper towel after every wash to ensure maximum removal of blocking buffer.
100 μL of MicroScint-20 (PerkinElmer 6013621) was added to the wells and kept overnight at RT before reading the plates in TopCount NXT™ Microplate Scintillation and Luminescence Counter from PerkinElmer under 3H Test protocol (set at 120 seconds reading time per well, with normal plate orientation).
(§1) Preparation of Test Compound Dilutions
(§2) All test compounds were provided in powder form at RT. 10 mM DMSO stocks of the test compounds were prepared, aliquoted and stored at −20° C. From the 10 mM DMSO stock of the compounds, a 3-fold serial dilution in DMSO was prepared to get a total of 10 dilutions of the test compounds. 0.5 μL of this dilution in DMSO was added to 250 μL of FBS-free basal media containing 3H-taurocholic acid and cold taurocholic acid to prepare the incubation mixture.

hIBAT = molecular target: T2, hIBAT (Homo sapiens, UniProt Q12908); experiment: IBAT (h/m) assay: 3H-taurocholic acid uptake in human IBAT-overexpressing cells; type: cell-based; settings: 0.25 μM 3H-taurocholic acid + 5 μM cold taurocholic acid, 20 minutes at 37° C., highest test concentration 10 μM
T2 construct: expressed in transfected cells; kept under Puromycin selection
T2 sequence (Q12908 1-348): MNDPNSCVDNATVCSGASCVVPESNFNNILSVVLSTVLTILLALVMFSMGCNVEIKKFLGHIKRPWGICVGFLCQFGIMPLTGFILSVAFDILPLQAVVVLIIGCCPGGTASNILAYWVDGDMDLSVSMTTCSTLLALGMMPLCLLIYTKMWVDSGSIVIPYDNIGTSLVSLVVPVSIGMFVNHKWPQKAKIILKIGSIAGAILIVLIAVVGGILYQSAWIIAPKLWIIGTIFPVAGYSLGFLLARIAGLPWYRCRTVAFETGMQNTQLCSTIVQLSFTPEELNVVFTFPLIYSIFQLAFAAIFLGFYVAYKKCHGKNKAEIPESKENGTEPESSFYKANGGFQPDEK
Method: IBAT (h/m) Assay Protocol
10,000 cells (Human or Mouse IBAT-overexpressing cells) were seeded in 96-wells plate (Corning CLS3809) in 200 μL MEM-alpha medium (Gibco 12571-063) supplemented with 10% FBS (Gibco 10438026) containing Puromycin (Gibco A1113803) (10 μg/mL) and incubated at 37° C. in 5% CO2 for 48 hours. After incubation, media was decanted from the wells and cells were washed two times with 300 μL of basal MEM-alpha medium (FBS-free). After decanting basal MEM-alpha medium each time, plates were tapped against paper towel to ensure maximum removal of residual media. Test inhibitor dilutions (highest test concentration being 10 μM, 3-fold serial dilution, 10 points) prepared in DMSO (Sigma D2650) were added in incubation mix (maintaining 0.2% final DMSO concentration) containing 0.25 μM 3H-taurocholic acid (ARC ART-1368) and 5 μM of cold taurocholic acid (Sigma T4009). 50 μL of incubation mix containing test inhibitors was then added to the wells (in duplicate) and the plates were incubated for 20 minutes in a CO2 incubator at 37° C. After incubation, the reaction was stopped by keeping the plates on ice water mix for 2-3 minutes and then the incubation mix was aspirated completely from the wells. The wells were washed two times with 250 μL of chilled unlabelled 1 mM taurocholic acid dissolved in HEPES (Gibco 15630080)-buffered (10 mM) HBSS (Gibco 14175079) (pH 7.4). The plates were tapped against a paper towel after every wash to ensure maximum removal of blocking buffer.
100 μL of MicroScint-20 (PerkinElmer 6013621) was added to the wells and kept overnight at RT before reading the plates in TopCount NXT™ Microplate Scintillation and Luminescence Counter from PerkinElmer under 3H Test protocol (set at 120 seconds reading time per well).
as §1, §2

| IC50 (hLBAT) [nM] | IC50 (hIBAT) [nM] | Structure (SMILES) |
| --- | --- | --- |
| > 10000 | > 10000 | CCCCC1CN(c2ccc(F)cc2)c2cc(OC)c(CSCC(=O)O)cc2S(=O)(=O)N1C (single isomer, unassigned) [30, enantiomer 1] |
| – | 1.7 | CCCCC1(CC)CN(c2ccccc2)c2cc(SC)c(CSCC(=O)O)cc2S(=O)(=O)N1 (single isomer, unassigned) [10, enantiomer 2] |
| 3820 | – | CCCCC1(CC)CN(c2ccccc2)c2cc(SC)c(CSCC(=O)O)cc2S(=O)(=O)C1 (racemic) [Example 1, 2-(((3-butyl-3-ethyl-7-(methylthio)-1,1-dioxido-5-phenyl-2,3,4,5-tetrahydro-1,5-benzothiazepin-8-yl)methyl)thio)acetic acid] |
| 194 | 192 | CCCCC1(C)CN(c2ccccc2)c2cc(SC)c(CSC(C)(C)C(=O)O)cc2S(=O)(=O)C1 (single isomer, unassigned) [19, enantiomer 1] |
| 164 | 10 | CCCCC1(CC)CN(c2ccc(F)cc2)c2cc(SC)c(CSC(C)(C)C(=O)O)cc2S(=O)(=O)C1 (single isomer, unassigned) [16, enantiomer 1] |
| 3310 | > 243 | CCCCC1(CC)CN(c2ccccc2)c2cc(SC)c(CSCC(=O)O)cc2S(=O)(=O)N1C (single isomer, unassigned) [21, enantiomer 1] |
| 34 | 116 | CCCCC1CN(c2ccccc2)c2cc(SC)c(CSCC(=O)O)cc2S(=O)(=O)N1C (single isomer, unassigned) [12, enantiomer 2] |
| > 3330 | 2.5 | CCCCC1(CC)CN(c2ccc(F)cc2)c2cc(OC)c(CSCC(=O)O)cc2S(=O)(=O)C1 (racemic) [Example 39, 2-(((3-butyl-3-ethyl-5-(4-fluorophenyl)-7-methoxy-1,1-dioxido-2,3,4,5-tetrahydro-1,5-benzothiazepin-8-yl)methyl)thio)acetic acid] |
| 216 | 88 | CCCCC1(CCCC)CN(c2ccccc2)c2cc(SC)c(CSC(C)(C)C(=O)O)cc2S(=O)(=O)C1 [Example 17, 2-(((3,3-Dibutyl-7-(methylthio)-1,1-dioxido-5-phenyl-2,3,4,5-tetrahydro-1,5-benzothiazepin-8-yl)methyl)thio)-2-methylpropanoic acid] |
| 21 | > 10000 | CCCCC1CN(c2ccccc2)c2cc(OC)c(CSC(C)(C)C(=O)O)cc2S(=O)(=O)N1C (racemic) [Example 37, 2-(((3-butyl-7-methoxy-2-methyl-1,1-dioxido-5-phenyl-2,3,4,5-tetrahydro-1,2,5-benzothiadiazepin-8-yl)methyl)thio)-2-methylpropanoic acid] |
| > 1000 | 5.8 | CCCCC1(CC)CN(c2ccccc2)c2cc(S(C)(=O)=O)c(CSCC(=O)O)cc2S(=O)(=O)N1 (single isomer, unassigned) [48, enantiomer 2] |
| 50 | 558 | CCCC[C@@H]1CN(c2ccccc2)c2cc(SC)c(CSCC(=O)O)cc2S(=O)(=O)N1 [Example 50, (R)-2-(((3-butyl-7-(methylthio)-1,1-dioxido-5-phenyl-2,3,4,5-tetrahydro-1,2,5-benzothiadiazepin-8-yl)methyl)thio)acetic acid] |
| > 10000 | > 10000 | CCCCC1CN(c2ccccc2)c2cc(OC)c(CSCC(=O)O)cc2S(=O)(=O)N1C (single isomer, unassigned) [36, enantiomer 1] |
| > 10000 | 532 | CCCCC1(C)CN(c2ccccc2)c2cc(OC)c(CSCC(=O)O)cc2S(=O)(=O)C1 (single isomer, unassigned) [28, enantiomer 2] |
| 2510 | 522 | CCCCC1(CC)CN(c2ccccc2)c2cc(SC)c(CSCC(=O)O)cc2S(=O)(=O)N1C (stereo not shown) [Example 20, 2-(((3-Butyl-3-ethyl-2-methyl-7-(methylthio)-1,1-dioxido-5-phenyl-2,3,4,5-tetrahydro-1,2,5-benzothiadiazepin-8-yl)methyl)thio)acetic acid] |
| > 10000 | 14 | CCCCC1(C)CN(c2ccccc2)c2cc(OC)c(CSCC(=O)O)cc2S(=O)(=O)C1 (racemic) [Example 27, 2-(((3-butyl-7-methoxy-3-methyl-1,1-dioxido-5-phenyl-2,3,4,5-tetrahydro-1,5-benzothiazepin-8-yl)methyl)thio)acetic acid] |
| 4840 | 2.8 | CCCCC1(CC)CN(c2ccc(F)cc2)c2cc(SC)c(CSCC(=O)O)cc2S(=O)(=O)C1 (single isomer, unassigned) [7, enantiomer 2] |
| 176 | 1870 | CCCCC1(C)CN(c2ccccc2)c2cc(SC)c(CSC(C)(C)C(=O)O)cc2S(=O)(=O)C1 (single isomer, unassigned) [19, enantiomer 2] |
| > 1000 | 7.4 | CCCCC1(C)CN(c2ccccc2)c2cc(N(C)C)c(CSCC(=O)O)cc2S(=O)(=O)N1 (stereo not shown) [Example 52, 2-(((3-Butyl-7-(dimethylamino)-3-methyl-1,1-dioxido-5-phenyl-2,3,4,5-tetrahydro-1,2,5-benzothiadiazepin-8-yl)methyl)thio)acetic acid] |
| 150 | 295 | CCCCC1(CC)CN(c2ccc(F)cc2)c2cc(OC)c(CSC(C)(C)C(=O)O)cc2S(=O)(=O)C1 (racemic) [Example 33, 2-(((3-butyl-3-ethyl-5-(4-fluorophenyl)-7-methoxy-1,1-dioxido-2,3,4,5-tetrahydro-1,5-benzothiazepin-8-yl)methyl)thio)-2-methylpropanoic acid] |
| – | 3.2 | CCCCC1(CC)CN(c2ccccc2)c2cc(OC)c(CSCC(=O)O)cc2S(=O)(=O)N1 (single isomer, unassigned) [45, enantiomer 2] |
| – | 2.3 | CCCCC1(CC)CN(c2ccccc2)c2cc(OC)c(CSCC(=O)O)cc2S(=O)(=O)C1 (racemic) [Example 13, 2-(((3-Butyl-3-ethyl-7-methoxy-1,1-dioxido-5-phenyl-2,3,4,5-tetrahydro-1,5-benzothiazepin-8-yl)methyl)thio)acetic acid] |

Reference: patent US20240067617A1 (Albireo AB, priority 2022, published 2024)
